Laboratory results from US20060009435A1, “Synthesis and powder preparation of fluticasone propionate” (priority 2004, published 2006).
Several values for one entry are separate records, joined by “and”; a condition that tells them apart may be missing. Equal entries are not always repeated. Entries after “also recorded” stand apart in the source; their conditions may differ. Where two headings read alike, the source gives them in different places.

Key:
Format in all cases: physicochemical
[1] = Particle size distribution by dynamic light scattering (Malvern Mastersizer 2000); conditions: for particle size D(0.10) / particle size D(0.20) / particle size D(0.50) / particle size D(0.80) / particle size D(0.90) / particle size D(0.95) / particle size D(0.98) / particle size D(0.99) / particle size D(1.00): dynamic light scattering; for Particle size distribution D(v, 0.1), 0.1 quantile / Particle size distribution D(v, 0.5), 0.5 quantile / Particle size distribution D(v, 0.9), 0.9 quantile / Particle size distribution D(v, 0.95), 0.95 quantile: light scattering
Method: Particle size was measured on a dynamic light scattering device by Malvern model Mastersizer 2000, using a measuring range of 0.02-2000 μm, accuracy level of 1% at the median, helium neon laser as a red light source, and solid state light source as a blue light source. Particle size distributions are presented as the average particle size of specified percentiles, including the flanking 0.1 and 0.9 quantiles and the median 0.5 quantile of the overall particle size distribution versus volume curve.

[2] = SEM micrograph of particle shape
[3] = Observation of powder flow, agglomeration tendency and electrostatic charge
[4] = X-ray powder diffraction of the powder (crystalline or amorphous morphology)
Method: X-ray diffraction data were acquired using a PHILIPS X-ray diffractometer model PW1050-70 set at 40 kV, 28 mA, using 1.54178 Å (Kα), diversion slit of 1°, receiving slit of 0.2 mm, scattering slit of 1° and a graphite monochromator.

| Particle size median [1] | particle size D(0.10) [1] [micron] | particle size D(0.20) [1] [micron] | particle size D(0.50) [1] [microns] | particle size D(0.80) [1] [microns] | particle size D(0.90) [1] [microns] | particle size D(0.95) [1] [microns] | particle size D(0.98) [1] [microns] | particle size D(0.99) [1] [microns] | particle size D(1.00) [1] [microns] | Particle size distribution D(v, 0.1), 0.1 quantile [1] [μ] | Particle size distribution D(v, 0.5), 0.5 quantile [1] | Particle size distribution D(v, 0.9), 0.9 quantile [1] | Particle size distribution D(v, 0.95), 0.95 quantile [1] [μ] | Powder characteristics (flow and morphology of the powder) [3] | SMILES | Particle shape (SEM micrograph) [2] | Electrostatic charge of the powder [3] | Tendency to agglomerate [3] | Morphology by X-ray powder diffraction pattern [4] | also measured |
| --- | --- | --- | --- | --- | --- | --- | --- | --- | --- | --- | --- | --- | --- | --- | --- | --- | --- | --- | --- | --- |
| Particle size median: 2.21 microns | 0.95 | 1.31 | 2.21 | 3.43 | 4.23 | 4.96 | 5.82 | 6.37 | 8.11 | 0.95 | 2.21 μ | 4.23 μ | 4.96 | Free flowing crystalline powder | CCC(=O)O[C@]1(C(=O)SCF)[C@H](C)C[C@H]2[C@@H]3C[C@H](F)C4=CC(=O)C=C[C@]4(C)[C@@]3(F)[C@@H](O)C[C@@]21C [Example 13, fluticasone propionate] | regular spherical shape and have smooth surface; also recorded: uniform spherical shape | did not exhibit any static electricity | did not exhibit a tendency to agglomerate; also recorded: did not exhibit any tendency to agglomerate; also recorded: that does not tend to agglomerate | crystalline morphology |  |
| Particle size median 4.10 microns; | 1.90 | 2.46 | 4.11 | 6.70 | 8.40 | 9.86 | 11.35 | 12.10 | 14.24 | 1.90 | 4.11 μ and 4.10 μ | 8.40 μ and 8.39 μ | 9.86 | Partially amorphous powder | CCC(=O)O[C@]1(C(=O)SCF)[C@H](C)C[C@H]2[C@@H]3C[C@H](F)C4=CC(=O)C=C[C@]4(C)[C@@]3(F)[C@@H](O)C[C@@]21C [Example 16, fluticasone propionate] |  |  |  | low level of a crystalline morphology; also recorded: mostly amorphous morphology | particle size of the powder [1]: less than 10 microns |
| Particle size median: 2.14 microns; | 0.96 | 1.27 | 2.14 | 3.44 | 4.36 | 5.27 | 6.44 | 7.32 | 13.54 | 0.96 | 2.14 μ | 4.36 μ | 5.27 | Free flowing crystalline powder | CCC(=O)O[C@]1(C(=O)SCF)[C@H](C)C[C@H]2[C@@H]3C[C@H](F)C4=CC(=O)C=C[C@]4(C)[C@@]3(F)[C@@H](O)C[C@@]21C [Example 14, fluticasone propionate] |  |  | did not exhibit a tendency to agglomerate; also recorded: that does not tend to agglomerate |  |  |
| Particle size median 2.67 microns; | 1.06 | 1.52 | 2.67 | 4.51 | 5.95 | 7.51 | 9.81 | 11.67 |  | 1.06 | 2.67 μ |  |  | Free flowing crystalline powder | CCC(=O)O[C@]1(C(=O)SCF)[C@H](C)C[C@H]2[C@@H]3C[C@H](F)C4=CC(=O)C=C[C@]4(C)[C@@]3(F)[C@@H](O)C[C@@]21C [Example 15, fluticasone propionate] |  |  | did not exhibit a tendency to agglomerate; also recorded: that does not tend to agglomerate |  |  |
|  |  |  |  |  |  |  |  |  |  |  |  |  |  |  | CCC(=O)O[C@]1(C(=O)SCF)[C@H](C)C[C@H]2[C@@H]3C[C@H](F)C4=CC(=O)C=C[C@]4(C)[C@@]3(F)[C@@H](O)C[C@@]21C [Example 12, fluticasone propionate] | irregular shape of the particles; also recorded: irregular jaggedly shaped particles | tended to accumulate a considerable amount of static charge; also recorded: tended to accumulate a considerable amount of electrostatic charge | generally tended to agglomerate; also recorded: high tendency to agglomerate |  | particle size distribution in words ([1]; air-jet milled, data not shown): either too many oversized particles or too many undersized particles; also recorded: unsatisfactory size distribution; Particle shape (SEM micrograph) ([2]; listed as Reference Example 12): irregular jaggedly shape |
